The target in data set [1] is T1, cyt c/TOCL complexes (Equus caballus, UniProt P00004).
T1 construct: purchased Sigma (St. Louis, Mo.)
Briefly: Peroxidase activity of cyt c/TOCL complexes, H2O2-induced oxidation of Amplex Red to resorufin. Type of data set: biochemical. To be noted: for inhibition of cyt c peroxidase compared with TPP-ISA: ratio of compound to cyt c of 2.5:1, TOCL:cyt c 25:1; for inhibition of peroxidase activity of cyt c/TOCL complexes (Amplex Red oxidation): cyt c 1 μM, CL/cyt c 25:1, 50 μM Amplex Red, 50 μM H2O2, 20 min. The protocol:
Conditions: cyt c (1 μM), H2O2 (50 μM), Amplex Red (50 μM). Experiments were performed in 20 mM HEPES buffer (pH 7.4) containing DTPA (100 μM), cyt c was incubated with DOPC/TOCL liposomes (1:1) at a ratio of TOCL:cyt c of 25:1.
(§1) Peroxidase activity of cyt c was assessed by oxidation of Amplex Red, etoposide or TLCL (tetra-linoleoyl-cardiolipin). Measurements of Amplex Red oxidation were performed using fluorescence of its oxidation product resorufin. Cyt c (1 μM) was incubated with tetra-oleoyl-cardiolipin (TOCL) containing liposomes (CL/cyt c ratio 25:1). Then 50 μM Amplex Red and 50 μM H2O2 were added, and the incubation proceeded for an additional 20 min. Fluorescence was detected by employing a “Fusion α” universal microplate analyzer and by using an excitation wavelength of 535 nm and an emission wavelength of 590 nm. EPR spectra of etoposide phenoxyl radicals were recorded at 25° C. in gas permeable Teflon tubings (inner diameter, 0.8 mm; thickness, 0.013; Alpha Wire Corp., Elizabeth, N.J.). Volume of samples was 60 μL. The spectra were recorded under the following conditions: 335.3 mT, center field; 2 mT, sweep width; 0.04 mT, field modulation; 10 mW, microwave power; 0.1 s, time constant; 2 min, time scan. The time course of the etoposide radical EPR signal was obtained by repeated scanning of the field (0.15 mT, sweep width; 335.3 mT, center field) corresponding to a part of the EPR signal. Peroxidase activity of mitochondria was determined by the formation of resorufin from Amplex Red. Isolated mouse liver mitochondria (0.6 mg/ml) were incubated in the presence of 100 μM Amplex Red and 2 mM tert-butyl hydroperoxide (tBOOH). After incubation at room temperature for 20 min, fluorescence of resurufin was measured.
Small unilamellar liposomes were prepared from dioleoylphosphatidylcholine (DOPC) and TOCL (1:1 ratio) or DOPC and TLCL (4:1 ratio) by sonication in HEPES buffer (20 mM with 100 μM diethylene triamine pentaacetic acid (DTPA) (pH 7.4) 3×60 sec, relaxation time 2 min, 4° C.).
(§2) Peroxidase activity of cyt c was assessed by oxidation of Amplex Red, etoposide or TLCL as described above.

In data set [2] the target is T1, cyt c/TOCL complexes. The data set is described as follows: Low-temperature (77 K) EPR of protein-immobilized (tyrosyl) radicals of cyt c/TOCL with H2O2. It is filed as biochemical. The note with it: cyt c 100 μM, H2O2 500 μM, EPR at 77 K. The protocol: EPR spectra of protein-immobilized (tyrosyl) radicals were recorded after the addition of H2O2 (500 μM) to cyt c (100 μM) incubated with tetra-oleoyl-cardiolipin (TOOL) liposomes at room temperature. After incubation for 20 s, the reaction was stopped by freezing the samples in liquid nitrogen. EPR spectra were obtained on a JEOL-REIX spectrometer with 100 kHz modulation (JEOL, Kyoto, Japan). EPR spectra from frozen samples were recorded at 77 K under the following conditions: center field, 3230 G; sweep width, 100 G; field modulation, 5 G; microwave power, 1 mW; receiver gain, 10^3; time constant, 0.1 s; time scan, 4 min.

The test system of the next data set is mouse liver mitochondria. Briefly: Peroxidase activity of isolated mouse liver mitochondria (Amplex Red, tBOOH). Type of data set: biochemical. To be noted: 0.6 mg/ml mitochondria, 100 μM Amplex Red, 2 mM tBOOH, 20 min. The protocol:
Peroxidase activity of cyt c was assessed by oxidation of Amplex Red, etoposide or TLCL (tetra-linoleoyl-cardiolipin). Measurements of Amplex Red oxidation were performed using fluorescence of its oxidation product resorufin. Cyt c (1 μM) was incubated with tetra-oleoyl-cardiolipin (TOCL) containing liposomes (CL/cyt c ratio 25:1). Then 50 μM Amplex Red and 50 μM H2O2 were added, and the incubation proceeded for an additional 20 min. Fluorescence was detected by employing a “Fusion α” universal microplate analyzer and by using an excitation wavelength of 535 nm and an emission wavelength of 590 nm. EPR spectra of etoposide phenoxyl radicals were recorded at 25° C. in gas permeable Teflon tubings (inner diameter, 0.8 mm; thickness, 0.013; Alpha Wire Corp., Elizabeth, N.J.). Volume of samples was 60 μL. The spectra were recorded under the following conditions: 335.3 mT, center field; 2 mT, sweep width; 0.04 mT, field modulation; 10 mW, microwave power; 0.1 s, time constant; 2 min, time scan. […] Peroxidase activity of mitochondria was determined by the formation of resorufin from Amplex Red. […] After incubation at room temperature for 20 min, fluorescence of resurufin was measured.
Finally, the ability of ISA and IEOA to inhibit peroxidase activity using isolated mouse liver mitochondria was assessed. […]

The subject of another data set is mouse embryonic cells. Briefly: Actinomycin D-induced cell death in mouse embryonic cells (Annexin V/PI). It is filed as cell-based. To be noted: 1 to 100 μM (BSA complexes), 100 ng ml^−1 ActD, 18 h. The protocol: IEOA or ISA were incubated in the presence of fatty acid-free bovine serum albumin (BSA) (Sigma) at a molar ratio of 5:1 at 37° C. for 30 min. Mouse embryonic cells were incubated with IEOA/BSA or ISA/BSA (100 μM) complexes for 30 min before the addition of 100 ng ml^−1 actinomycin D (ActD). After 18-h incubation with ActD, cell viability was analysed by flow cytometry using an Annexin V/PI kit. ActD-induced cell death in ˜34.2% of cells. […] Representative data with 100 μM IEOA/BSA and ISA/BSA complexes are shown. Data are means±s.d., n=3.

For data set [3], the target named is T1, cyt c/TOCL complexes. The data set is described as follows: Haem-nitrosylation of cyt c/TOCL by nitroxyl from Angeli's salt, EPR at 77 K. To be noted: Angeli's salt 500 μM, 30 min. It is filed as biochemical. The protocol: Heme nitrosylation: Cyt c (100 μM) was incubated with a nitroxyl donor, Angeli's salt (500 μM), for 30 min at room temperature. The reaction was stopped by freezing the samples in liquid nitrogen. The EPR spectra of heme-nitrosylated cyt c were measured at 77 K under the following instrumental settings: center field, 3200 G; scan range, 500 G; field modulation, 5 G; microwave power, 10 mW; time constant, 0.1 s; scan time, 4 min; receiver gain, 10^3.

Data set [4] addresses T1, cyt c/TOCL complexes. Briefly: Peroxidase activity of cyt c/TOCL complexes, H2O2-induced oxidation of etoposide (EPR of phenoxyl radicals). It is filed as biochemical. The note with it: H2O2-driven oxidation of etoposide. The protocol: as §1, §2
A further data set has as its target T2, native ferri-cyt c (Equus caballus, UniProt P00004).
T2 construct: purchased Sigma (St. Louis, Mo.)
The data set is described as follows: Liquid-He (20 K) X-band EPR of haem-iron ligation, native cyt c. Type of data set: binding. To be noted: pH 7.4, 20 K, no TOCL. The protocol:
(§3) Conditions: native cyt c (300 μM), IEOA/cyt c (2:1), TOCL/IEOA/cyt c (20:2:1), 20 mM HEPES buffer, pH 7.4. Samples (200 μl) were placed in 3 mm o.d. suprasil quartz EPR tubes and frozen in liquid nitrogen for subsequent spectroscopic measurements. X-band (9 GHz) EPR spectra were recorded on a Bruker ESP 300 spectrometer equipped with an Oxford Instruments ESR 910 flow cryostat for ultra-low-temperature measurements. Spectra were recorded at 9.8 G modulation amplitude and 200 μW microwave power. The microwave frequency was calibrated by a frequency counter and the magnetic field was calibrated with a gaussmeter. The temperature was calibrated with carbon-glass resistors (CGR-1-1000) from LakeShore. This instrument and the software (SpinCount) to analyse the EPR spectra were provided by Professor Mike Hendrich, Carnegie Mellon University.

Another data set deals with T3, cyt c/TOCL complex (Equus caballus, UniProt P00004).
T3 construct: purchased Sigma (St. Louis, Mo.)
Briefly: Liquid-He (20 K) X-band EPR of haem-iron ligation, cyt c/TOCL complex. Type of data set: binding. The protocol:
as §3

Data set [5] in a line: TPP-IOA levels in plasma, small intestine and bone marrow after i.p. injection (LC-MS/MS, SRM). Type of data set: in vivo. To be noted: C57BL/6NTac, mouse, ip, 10 min after i.p. injection, 5 mg/kg body weight. The protocol:
TPP-IOA and its hydrolysis products were extracted from plasma, small intestine and bone marrow tissue 10 min after TPP-IOA i.p. injection into animals (5 mg/kg body weight), using a standard Folch procedure for extraction of lipids^37. In one set of runs, intact TPP-IOA was assessed by SRM as described below. In an identical set of duplicate runs, hydrolyzed TPP-IOA (in the form of the TPP moiety, see below) was assessed by a different mass spectrometric method, MRM, as described below.
TPP-IOA (m/z 651) was assessed by SRM in a LCQ-Duo ion trap mass spectrometer (Thermo, Inc., Waltham, Mass.). Chromatography was performed on an Eclipse XDB reverse phase C18 column (4.6 mm×15 cm, Agilent Technologies, Santa Clara, Calif.) using an isocratic solvent system consisting of acetonitrile:water:triethylamine:acetic acid (450:50:2.5:2.5, v/v/v/v) and a flow rate of 0.4 ml/min. The transition measured was 651>303 (TPP-IOA to TPP-propyl moiety—water) within a 0.5 Da window. Instrument conditions were as follows: spray voltage, 4.5 kV, positive mode; sheath gas, 30; capillary temperature, 250° C.; tube lens, 20; capillary voltage, 26. The instrument was tuned for the appropriate parent ion and all parameters were optimized to maximize the transition during the SRM including tuning under appropriate flow conditions.

From patent US9365597B2, “Mitochondria-targeted inhibitors of cytochrome c peroxidase for protection from apoptosis” (Brock University, priority 2011, dated 2016) come the findings set out here.

“Also recorded” adds a separate entry of the source. Read-outs that look alike come from different tables or passages of the source.

T1 sequence (P00004 2-105 limits assumed, one chain of several): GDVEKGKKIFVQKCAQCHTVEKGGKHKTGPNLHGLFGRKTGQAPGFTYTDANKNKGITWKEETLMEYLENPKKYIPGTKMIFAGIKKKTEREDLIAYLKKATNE
T3 sequence (P00004 2-105 limits assumed, one chain of several): as above
T2 sequence (P00004 2-105 limits assumed): as the sequence (P00004 2-105 limits assumed, one chain of several) above

For the molecule `CCCCCCCCCCCCC(CCCCC(=O)OCCC[P+](c1ccccc1)(c1ccccc1)c1ccccc1)n1ccnc1.[Br-]` (racemic) [TPP-6-imidazole-stearic acid, (3-((6-(1H-imidazol-1-yl)octadecanoyl)oxy)propyl)triphenylphosphonium bromide], the “inhibition of cyt c peroxidase compared with TPP-ISA” value on cyt c/TOCL complexes [1] is on record as “significantly better inhibitors of cyt c peroxidase than TPP-ISA”.

For `CCCCCCCCCCC(CCCCCCC(=O)OCCC[P+](c1ccccc1)(c1ccccc1)c1ccccc1)n1ccnc1.[Br-]` (racemic) [TPP-8-imidazole-stearic acid, (3-((8-(1H-imidazol-1-yl)octadecanoyl)oxy)propyl)triphenylphosphonium bromide], the “inhibition of cyt c peroxidase compared with TPP-ISA” value at cyt c/TOCL complexes [1] is recorded as “significantly better inhibitors of cyt c peroxidase than TPP-ISA”.

On to `CCCCCCC(C/C=C/CCCCCCCC(=O)O)n1ccnc1` (stereo not drawn) [IEOA, (E)-12-(1H-imidazol-1-ium-1-yl)octadec-9-enoic acid], for which the “H2O2-dependent generation of protein-immobilized (tyrosyl) radicals” value at cyt c/TOCL complexes [2] is “effectively quenched generation of Tyr. radicals”. The “peroxidase activity of isolated mouse liver mitochondria” value in the data set on mouse liver mitochondria is “suppressed peroxidase activity in a concentration-dependent manner”. Also, the “protection against ActD-induced cell death” value in the data set on mouse embryonic cells is “exerted no protection against apoptosis; also recorded: no detectable protection”. At cyt c/TOCL complexes [3], the “EPR signal of haem-nitrosylated cyt c/TOCL” value was “concentration-dependent decrease of the EPR signal”. In addition, the “inhibition of peroxidase activity of cyt c/TOCL complexes (Amplex Red oxidation)” value (from here on “inhibition … (Amplex Red oxidation)”) on cyt c/TOCL complexes [1] is on record as “potent inhibitors”. Further, the “inhibition of peroxidase activity of cyt c/TOCL complexes (etoposide oxidation, EPR)” value (from here on “inhibition … (etoposide oxidation, EPR)”) at cyt c/TOCL complexes [4] is reported as “potent inhibitors”.

In the case of `CCCCCCC(C/C=C\CCCCCCCC(=O)O)n1ccnc1` (stereo not drawn) [IOA, 12-(Imidazol-1-yl)-(Z)-9-octadecaenoate], the “H2O2-dependent generation of protein-immobilized (tyrosyl) radicals” value at cyt c/TOCL complexes [2] is “effectively quenched generation of Tyr. radicals”. For the same molecule, on native ferri-cyt c, the “EPR spectrum (axial haem coordination) of native ferri-cyt c on addition of compound” value is recorded as “no change in the EPR spectrum”. Besides, the “inhibition … (Amplex Red oxidation)” value against cyt c/TOCL complexes [1] is given as “potent inhibitors”. Further, on cyt c/TOCL complexes [4], the “inhibition … (etoposide oxidation, EPR)” value is recorded as “potent inhibitors”.

For the molecule `CCCCCCC(CCCCCCCCCCC(=O)O)n1ccnc1` (stereo not drawn) [ISA, 12-(1H-imidazol-1-yl)octadecanoic acid], the “peroxidase activity of isolated mouse liver mitochondria” value with mouse liver mitochondria is on record as “suppressed peroxidase activity in a concentration-dependent manner”. Also, in the data set with mouse embryonic cells, the “protection against ActD-induced cell death” value is on record as “exerted no protection against apoptosis; also recorded: no detectable protection”. The “change of haem-iron coordination in cyt c (Met80 substituted by imidazole moiety)” value at cyt c/TOCL complex was “able to change haem-iron coordination in cyt c”. Besides, the “EPR signal of haem-nitrosylated cyt c/TOCL” value at cyt c/TOCL complexes [3] is reported as “concentration-dependent decrease of the EPR signal”. The “inhibition … (Amplex Red oxidation)” value on cyt c/TOCL complexes [1] is “potent inhibitors”. At cyt c/TOCL complexes [4], the “inhibition … (etoposide oxidation, EPR)” value is on record as “potent inhibitors”.

`CCCCCCC(C/C=C\CCCCCCCC(=O)OCCC[P+](c1ccccc1)(c1ccccc1)c1ccccc1)n1ccnc1.[Br-]` (stereo not drawn) [TPP-IOA, 9-(Z)-(3-(12-imidazol-1-yl)octadeca-9-enoyloxy)propyl)triphenylphosphonium bromide]: the concentration at 10 min in [5] (bone marrow, read-out: TPP-IOA level in bone marrow) came out at 0.2 ng/g; in [5] (plasma, read-out: TPP-IOA level in plasma) it was 54 ng/mL; in [5] (small intestine, read-out: TPP-IOA level in small intestine), 1.5 ng/g.
